In paper PMC13095408, “DBeQ derivative targets vacuolar protein sorting 4 functions in cancer cells and suppresses tumor growth in mice” (The Journal of Pharmacology and Experimental Therapeutics, 2025):

Key:
[1] = tested on: GFP-CHMP4B-expressing U2OS cells; assay: GFP-CHMP4B accumulation cell-based assay (high-content microscopy)
Procedure: Plates were then scanned using the 20× objective for 1 hour with ≥100 cells/well across 6 fields/well. […] For all other assays, the cells were cultured overnight in black glass-bottom 96-well plates (Cellvis; P96-1.5H-N) then stained, rinsed, and treated with SM containing the indicated compounds (0.1% DMSO or 0.1% DMSO/0.1% ethanol [vehicle] final). Plates were scanned using the 20× NA .70 objective at the indicated intervals with ≥ 300 cells/well across 3 fields/well. […]

recombinant human VCP = biological target: T1, recombinant human VCP (Rattus norvegicus, UniProt P46462); assay: VCP ATPase activity, EnzChek Phosphate assay; assay type: biochemical
T1 construct: His (N); host or cells: Escherichia coli BL21(DE3)
T1 sequence (P46462 2-806 limits assumed): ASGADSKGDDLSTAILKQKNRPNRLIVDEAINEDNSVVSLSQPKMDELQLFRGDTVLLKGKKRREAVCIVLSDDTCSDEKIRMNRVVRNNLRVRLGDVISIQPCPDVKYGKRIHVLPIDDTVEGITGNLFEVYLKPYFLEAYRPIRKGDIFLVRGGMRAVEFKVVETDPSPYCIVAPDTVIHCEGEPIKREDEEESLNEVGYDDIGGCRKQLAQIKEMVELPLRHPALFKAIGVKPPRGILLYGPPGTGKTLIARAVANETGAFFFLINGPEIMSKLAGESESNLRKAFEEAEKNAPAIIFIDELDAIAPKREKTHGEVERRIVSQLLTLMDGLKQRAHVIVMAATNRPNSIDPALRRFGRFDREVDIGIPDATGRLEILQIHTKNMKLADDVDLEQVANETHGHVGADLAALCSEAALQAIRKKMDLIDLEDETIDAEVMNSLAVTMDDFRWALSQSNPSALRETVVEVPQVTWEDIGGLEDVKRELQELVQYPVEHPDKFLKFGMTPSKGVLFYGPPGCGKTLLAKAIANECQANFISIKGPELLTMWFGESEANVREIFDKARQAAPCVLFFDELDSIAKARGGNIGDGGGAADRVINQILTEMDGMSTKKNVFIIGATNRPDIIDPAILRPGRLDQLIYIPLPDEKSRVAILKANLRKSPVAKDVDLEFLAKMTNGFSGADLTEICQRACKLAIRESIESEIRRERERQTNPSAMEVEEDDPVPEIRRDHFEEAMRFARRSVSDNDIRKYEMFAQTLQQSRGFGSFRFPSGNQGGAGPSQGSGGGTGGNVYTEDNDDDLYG
Procedure: (§1) VPS4B and VCP ATPase activities were measured using the EnzChek Phosphate assay for the quantification of released phosphate. Assay buffers were based on literature precedents ([Cupido et al, 2019], [2021]) as follows: VPS4B buffer (20 mM HEPES-KOH, pH 7.4, 25 mM KOAc, 2 mM MgCl2, 5 mM (NH4)2SO4, 0.5 mM CaCl2, 2.5 mM DTT, 0.1 mg/mL BSA, 0.005% v/v Triton X-100), VCP buffer (20 mM HEPES-NaOH, pH 7.4, 20 mM NaCl, 10 mM MgCl2, 5 mM (NH4)2SO4, 0.5 mM CaCl2, 2.5 mM DTT, 0.1 mg/mL BSA, 0.005% v/v Triton X-100). In black clear-bottom 384-well plates, 22.5 μL of 5% DMSO or 40× test compounds diluted in the respective assay buffer was added to each well. ATPases were diluted to 1 μM in the respective buffers containing 2× EnzChek Phosphate assay coupling reagents of 400 μM MESG and 2 U of PNP, then 25 μL was added to each well. Plates were mixed at 1000 rpm for 30 minutes at RT while being protected from light. The reaction was initiated by adding 2.5 μL of 20 mM MgATP or water followed by mixing at 1200 rpm for 30 seconds at RT. Plates were measured at 360 nm using a CLARIOstar plate reader (BMG LABTECH) for 20 minutes at 37 °C. ATPase activity was calculated as the amount of phosphate released over a 5-minute interval under linear initial velocity conditions. The remaining ATPase activity was calculated by normalizing compound-treated activity values to the DMSO control. IC50 was calculated by fitting normalized values to a sigmoidal dose-response curve with Hill slope = −1 using Graph Pad Prism 10.0.
(§2) To identify VPS4i, we developed enzyme- and cell-based VPS4 functional assays to serve as VPS4i-screening platforms. For the enzyme-based assay, we used the colorimetric EnzChek Phosphate assay that detects free phosphate with the advantage of continuous measurement of ATP hydrolysis over time. […] Due to the high sequence and structural similarity of AAA-ATPases, we also established a VCP ATPase assay to evaluate hit selectivity. […] For the cell-based assay, our approach was based on how VPS4 inhibition causes the accumulation of ESCRT-III ([Babst et al, 1998]; [Katoh et al, 2003]). We used an N-terminal GFP-tagged CHMP4B reporter system because it is the most abundant ESCRT-III subunit ([Katoh et al, 2004]; [Teis et al, 2008]). Our aim was to test compounds under short-term serum and amino acid starvation to stimulate ESCRT activity for easier detection of inhibitors ([Takahashi et al, 2018], [2019]). […] Overall, we established 2 systems for VPS4i screening, a VPS4B ATPase activity assay and a GFP-CHMP4B accumulation cell-based assay.

VPS4B = biological target: T2, VPS4B (Homo sapiens, UniProt O75351); assay: VPS4B ATPase activity, EnzChek Phosphate assay; assay type: biochemical; parameters: His tag (pET28a vector-encoded) (N); made in house; host or cells: Escherichia coli BL21(DE3)
T2 sequence (O75351 1-444): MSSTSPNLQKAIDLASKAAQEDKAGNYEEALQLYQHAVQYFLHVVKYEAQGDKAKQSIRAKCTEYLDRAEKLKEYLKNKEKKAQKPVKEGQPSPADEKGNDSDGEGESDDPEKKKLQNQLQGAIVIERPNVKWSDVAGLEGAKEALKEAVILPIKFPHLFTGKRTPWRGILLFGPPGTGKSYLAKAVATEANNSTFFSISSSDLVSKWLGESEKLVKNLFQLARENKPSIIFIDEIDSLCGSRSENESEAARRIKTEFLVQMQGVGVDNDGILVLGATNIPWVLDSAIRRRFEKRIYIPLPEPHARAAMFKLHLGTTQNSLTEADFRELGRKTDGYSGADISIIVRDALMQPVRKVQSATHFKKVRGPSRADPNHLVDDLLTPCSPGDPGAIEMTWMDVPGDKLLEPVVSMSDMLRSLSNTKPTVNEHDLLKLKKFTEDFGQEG
Procedure: as §1, §2

[2] = screened at 1 µM, mean ± S.D., Supplemental Table 2
[3] = screened at 1 μM, starvation media, 1 hour, foci intensity per cell normalized to 4-107, mean ± SD, Table 1
[4] = remaining ATPase activity, screened at 5 μM, mean ± SD, Table 2
[5] = screened at 5 µM, mean ± S.D., Supplemental Table 2
[6] = remaining ATPase activity, screened at 5 μM, mean ± SD, Table 1

| SMILES | GFP-CHMP4B (% 4-107) [1, 2] [% 4-107] | GFP-CHMP4B (% 4-107) [1, 3] [% 4-107] | VCP ATPase (% DMSO) (recombinant human VCP; [4]) | VCP ATPase (% DMSO) (recombinant human VCP; [5]) | VPS4B ATPase (% DMSO) (VPS4B; [6]) | VPS4B ATPase (% DMSO) (VPS4B; [5]) |
| --- | --- | --- | --- | --- | --- | --- |
| COc1cccc2c(NCc3ccccc3)nc(NCc3cccc(C#N)c3)nc12 [Compound 17] | 82.61 ± 11.90 | 82.61 ± 11.90 | 91.83 ± 5.36 | 91.83 ± 3.79 | 55.59 ± 2.13 | 55.59 ± 2.13 |
| COc1cccc(CNc2nc(NCc3ccccc3)c3cccc(OC)c3n2)c1 [Compound 5-27-2] | 71.11 ± 0.37 | – | – | 100.03 ± 0.81 | – | 51.50 ± 0.83 |
| COc1cccc2c(NCc3ccccc3)nc(NCc3ccc(C)cc3)nc12 [Compound 18] | 48.09 ± 1.26 | 48.09 ± 1.26 | 83.40 ± 4.64 | 83.40 ± 3.28 | 27.55 ± 0.01 | 27.55 ± 0.01 |
| COc1cccc2c(NCc3ccccc3)nc(NCc3cccc4ccccc34)nc12 [Compound 13] | 36.79 ± 0.89 | 36.79 ± 0.89 | – | 98.67 ± 2.86 | 28.27 ± 0.04 | 28.27 ± 0.04 |
| COc1cccc2c(NCc3ccccc3)nc(NCc3ccc(F)cc3)nc12 [Compound 5-151] | 73.02 ± 27.67 | – | – | 93.82 ± 0.90 | – | 47.66 ± 0.34 |
| COc1ccc(CNc2nc(NCc3ccc(OC)cc3)c3cccc(OC)c3n2)cc1 [Compound 21] | 37.69 ± 13.03 | 37.69 ± 13.03 | – | 100.96 ± 0.28 | 33.98 ± 3.50 | 33.98 ± 3.50 |
| COc1ccc(CNc2nc(NCc3ccccc3)c3cccc(OC)c3n2)cc1 [Compound 19] | 86.61 ± 22.39 | 86.61 ± 22.39 | 107.28 ± 2.66 | 107.28 ± 1.88 | 29.98 ± 0.49 | 29.98 ± 0.49 |
| COc1ccc2c(NCc3ccccc3)nc(NCc3ccccc3)nc2c1 [Compound 6] | 33.47 ± 15.62 | 33.47 ± 15.62 | – | 86.15 ± 0.65 | 35.59 ± 2.28 | 35.59 ± 2.28 |
| COc1cccc2c(NCc3ccc(F)cc3)nc(NCc3ccc(F)cc3)nc12 [Compound 22] | 51.23 ± 26.20 | 51.23 ± 26.20 | – | 99.33 ± 2.70 | 46.38 ± 2.33 | 46.38 ± 2.33 |
| Nc1cccc2c(NCc3ccccc3)nc(NCc3ccccc3)nc12 [Compound 7-31] | 48.41 ± 2.74 | – | – | 69.70 ± 8.05 | – | – |
| COc1cccc2c(NCc3ccccc3)nc(NC(c3ccc(F)cc3)c3ccc(F)cc3)nc12 [Compound 7-13] | 12.60 ± 1.04 | – | – | – | – | 39.86 ± 1.36 |
| COc1cccc2c(NCc3ccccc3)nc(N[C@H](C)c3ccc4ccccc4c3)nc12 [Compound 5-95] | 2.43 ± 1.04 | – | – | – | – | 42.87 ± 1.98 |
| COC(=O)c1cccc2c1ccn2-c1nc(NCc2ccccc2)c2cccc(OC)c2n1 [Compound 5-135] | 4.63 ± 2.05 | – | – | – | – | 86.66 ± 2.70 |
| COc1cccc2c(NCc3ccccc3)nc(NCc3ccc4ccccc4c3)nc12 [Compound 12] | 10.42 ± 6.42 | 10.42 ± 6.42 | – | – | 30.39 ± 0.43 | 30.39 ± 0.43 |
| O=[N+]([O-])c1cccc2c(NCc3ccccc3)nc(NCc3ccccc3)nc12 [Compound 5] | 15.05 ± 0.55 | 15.05 ± 0.55 | – | – | 86.38 ± 2.37 | 86.38 ± 2.37 |
| COC(=O)c1cccc(CNc2nc(NCc3ccccc3)c3cccc(OC)c3n2)c1 [Compound 14] | 13.39 ± 9.03 | 13.39 ± 9.03 | – | – | 42.10 ± 0.26 | 42.10 ± 0.26 |
| COc1cccc2c(NCc3ccncc3)nc(NCc3ccncc3)nc12 [Compound 5-11] | 1.10 ± 0.76 | – | – | – | – | 82.46 ± 1.64 |
| COc1cccc2c(NCc3ccccc3)nc(Nc3cccc4cc5ccccc5cc34)nc12 [Compound 5-129] | 1.25 ± 0.86 | – | – | – | – | 63.24 ± 0.19 |
| COc1cccc2c(NCc3ccccc3)nc(-n3ccc4c(C(=O)O)cccc43)nc12 [Compound 5-137] | 2.21 ± 0.41 | – | – | – | – | 96.09 ± 2.11 |
| COc1ncnc2c1ccn2-c1nc(NCc2ccc(C(F)(F)F)cc2)c2cccc(OC)c2n1 [Compound 5-57] | 2.44 ± 0.81 | – | – | – | – | 93.98 ± 3.83 |
| COc1cccc2c(NCCc3ccccc3)nc(N[C@@H](C)c3ccc4ccccc4c3)nc12 [Compound 5-97] | 1.82 ± 0.02 | – | – | – | – | 49.73 ± 0.04 |
| COc1cccc2c(NCc3ccccc3)nc(Nc3ccc4ccccc4c3)nc12.Cl [Compound 5-79] | 3.40 ± 0.70 | – | – | – | – | 76.35 ± 3.47 |
